Source: patent publication US20130143812A1, “ANTI-INFLAMMATORY DRUG” (SEKISUI MEDICAL CO., LTD., priority 2010, published 2013)

Experiments:
RAW264.7 cells [1] = test: Macrophage marker expression in RAW264.7 cells with activin A, activin B or SB431542 and palmitic acid; format: cell-based; conditions: for expression level of IL-6 / expression level of MCP-1 / expression level of arginase-1: compared to control
Protocol: (1) Induction of Macrophages by Activin Species Activin A (10 ng/mL), activin B (10 ng/mL), and SB431542 (0.1 to 1 μM) were added to RAW264.7 cells in combination as depicted in FIG. 4. Human Recombinant (R&D Systems, 338AC005) and Recombinant (R&D Systems, 659AB005) were used for activin A and activin B, respectively. After 30 minutes, palmitic acid (a proinflammatory substance) was added to the final concentration of 200 μM and, after eight hours, RNeasy Mini Kit (250) (Qiagen, Cat. Number 74106) was used for recovering the cells to extract RNA. The RNA extracted at step (1) was used for performing a reverse transcription reaction in accordance with the protocol of High Capacity cDNA Reverse Transcription Kit with RNase Inhibitor (ABI) to perform TaqMan PCR. Arginase-1 was selected as an M2 macrophage marker and IL-6 and MCP-1 were selected as M1 macrophage markers to create respective TaqMan probes. Analysis was performed in the same way as the expression analysis of macrophage markers of Example 1.

RAW264.7 cells [2] = test: Expression of M2 macrophage markers in RAW264.7 cells cultured with activin A and SB431542; format: cell-based; conditions: SB431542 0.1 to 1 μM added with activin A, 24 hours
Protocol: Activin A (10 ng/mL or 30 ng/mL) and SB431542 (0.1 to 1 μM, Santa Cruz Biotechnology, Inc., sc-204265) were added to RAW264.7 cells in combination as depicted in FIG. 2. Human Recombinant (R&D Systems, 338AC005) was used for activin A. After 24 hours, RNeasy Mini Kit (250) (Qiagen, Cat. Number 74106) was used for recovering the cells to extract RNA. The RNA extracted at step (1) was used for performing a reverse transcription reaction in accordance with the protocol of High Capacity cDNA Reverse Transcription Kit with RNase Inhibitor (ABI) to perform TaqMan PCR. Arginase-1, Mrc2 (mannose receptor 2), and IL-10 were selected as M2 macrophage markers to create respective TaqMan probes.

RAW264.7 cells [3] = test: Macrophage marker expression in RAW264.7 cells with activin A, activin B or Fstl3 and palmitic acid; format: cell-based; conditions: palmitic acid 200 μM
Protocol: (§1) Activin A (10 ng/mL), activin B (10 ng/mL), and Fstl3 (3 to 30 ng/mL) were added to RAW264.7 cells in combination as depicted in FIG. 5. Human Recombinant (R&D Systems, 338AC005), Recombinant (R&D Systems, 659AB005), and Follistatin-like 3 Recombinant (R&D Systems, 1255F3025) were used for activin A, activin B, and Fstl3, respectively. After 30 minutes, palmitic acid (a proinflammatory substance) was added to the final concentration of 200 μM and, after eight hours, RNeasy Mini Kit (250) (Qiagen, Cat. Number 74106) was used for recovering the cells to extract RNA.
Analysis was performed in the same way as Example 4. For each of palmitic acid, activin species, and Fstl3, the expression level is represented by a ratio when a measurement value of each marker relative to a measurement value of cyclophilin A in non-additive control is defined as one.

RAW264.7 cells [4] = test: Expression of M2 and M1 macrophage markers in RAW264.7 cells cultured with activin A or activin B (TaqMan PCR); format: cell-based; conditions: 10 or 30 ng/mL added individually, 8 hours
Protocol: Each of activin A (10 ng/mL or 30 ng/mL) and activin B (10 ng/mL or 30 ng/mL) was individually added to RAW264.7 cells. Human Recombinant (R&D Systems, 338AC005) and Recombinant (R&D Systems, 659AB005) were used for activin A and activin B, respectively. After eight hours, RNeasy Mini Kit (250) (Qiagen, Cat. Number 74106) was used for recovering the cells to extract RNA.
The RNA extracted at step (1) was used for performing a reverse transcription reaction in accordance with the protocol of High Capacity cDNA Reverse Transcription Kit with RNase Inhibitor (ABI) to perform TagMan PCR. Arginase-1 was selected as an M2 macrophage marker and IL-6 and MCP-1 were selected as M1 macrophage markers to create respective TaqMan probes. Each of mRNA expression levels is represented by a multiple when an expression level of cyclophilin A mRNA in the same sample is defined as one (hereinafter, the same applies to the examples using TaqMan PCR unless otherwise stated).

[5] = tested on: high-fat diet-fed B6 mice; test: Arginase-1 mRNA expression in visceral fat of high-fat diet-fed B6 mice given recombinant adenovirus; format: in vivo; conditions: twelve-week high-fat diet B6 mice, activin expressed by recombinant adenovirus via tail vein once a week for two weeks
Text: (§2) Full-length mouse inhibin βA cDNA or full-length mouse inhibin βB cDNA was amplified by using pcDNA3.1/V5-HisA (Invitrogen) in accordance with the recommended method. The amplified product was subjected to HindIII and EcoRV treatments and used for production of recombinant adenovirus. The recombinant adenovirus of inhibin βA or inhibin βB was produced by using Takara Adenovirus Expression Vector Kit (Takara) in accordance with the recommended method. For negative control, β-galactosidase-gene-containing virus attached to the kit was used. The adenovirus was transfected to HEK293 cells by using CellPhect (registered trademark) Transfection Kit (GE Healthcare) with the calcium phosphate method.
After five-week-old male B6 mice were adapted with normal diet for one week, high-fat diet was fed for twelve weeks. The recombinant adenovirus (5.0×10^11 pfu/mL) was lysed in 150 μL of PBS and administered to mice in the 18th week from the tail vein once a week for two weeks. Visceral fat was collected on seventh day after the second administration for performing reverse transcription in accordance with the protocol of High Capacity cDNA Reverse Transcription Kit with RNase Inhibitor (ABI) and the expression analysis of arginase-1 was performed with TaqMan PCR.

db/db mice = test: Arginase-1 mRNA expression in visceral fat of db/db mice given recombinant adenovirus; format: in vivo; conditions: activin expressed by recombinant adenovirus via tail vein once a week for two weeks, compared to control
Text: as §2
After seven-week-old male db/db mice were adapted for one week, 5.0×10^11 pfu/mL of the recombinant adenovirus was lysed in 150 μL of PBS and administered from the tail vein once a week for two weeks. Visceral fat was collected on seventh day after the second administration for performing a reverse transcription reaction in accordance with the protocol of High Capacity cDNA Reverse Transcription Kit with RNase Inhibitor (ABI) and the expression analysis of arginase-1 was performed with TaqMan PCR.

[6] = tested on: high-fat diet-fed B6 mice; test: Glucose tolerance test (GTT) in high-fat diet-fed B6 mice given recombinant adenovirus; format: in vivo; conditions: activin expressed by recombinant adenovirus, glucose 1.0 mg/g-BW into abdominal cavity
Protocol: Adenovirus was produced in the same way as the production of recombinant adenovirus in Example 3.
After five-week-old male B6 mice were adapted with normal diet for one week, high-fat diet was fed for twelve weeks. The recombinant adenovirus (5.0×10^11 pfu/mL) was lysed in 150 μL of PBS and administered to mice in the 18th week from the tail vein once a week for two weeks. A glucose tolerance test (GTT) was performed on seventh day after the second administration.
The GTT was performed as follows. Into the abdominal cavities of mice fasted for 16 hours from the previous day of the test, 1.0 mg/g-BW of glucose (diluted by physiological saline) was administered. Serum was separated from collected whole blood and glucose concentration was measured by Glucose-Test Wako (manufactured by Wako Pure Chemical Industries).

RAW264.7 cells [7] = test: Arginase-1 expression in RAW264.7 cells with activin A, Fstl3, anti-Fstl3 antibody or mouse IgG and palmitic acid; format: cell-based; conditions: Fstl3 30 ng/mL present with activin A 10 ng/mL, palmitic acid 200 μM
Protocol: as §1, with “Fstl3 (30 ng/mL), an anti-Fstl3 antibody or mouse IgG (0.3 to 10 μg/mL), and activin” for “Activin”, “(10” for “(10 ng/mL), activin B (10 ng/mL), and Fstl3 (3 to 30”, “6.” for “5.”
The RNA extracted at step (1) was used for performing a reverse transcription reaction in accordance with the protocol of High Capacity cDNA Reverse Transcription Kit with RNase Inhibitor (ABI) to perform TaqMan PCR. Arginase-1 was selected as an M2 macrophage marker to create TaqMan probes.

[8] = SB431542 0.1 to 1 μM with palmitic acid 200 μM, absence of activin species
[9] = SB431542 0.1 to 1 μM, activin A 10 ng/mL and palmitic acid 200 μM present
[10] = SB431542 0.1 to 1 μM, activin B 10 ng/mL and palmitic acid 200 μM present
[11] = SB431542 only (0.1 to 1 μM), without palmitic acid
[12] = palmitic acid 200 μM, absence of activin species, 8 hours
[13] = activin 10 ng/mL, palmitic acid 200 μM, 8 hours

NC(=O)c1ccc(-c2nc(-c3ccc4c(c3)OCO4)c(-c3ccccn3)[nH]2)cc1 [SB431542]
expression level of IL-6, effect of SB431542 (RAW264.7 cells [1]; [8]): constantly increased depending on the additive concentration | palmitic acid-induced increase of MCP-1 expression, effect of SB431542 (RAW264.7 cells [1]; [8]): not changed | expression level of IL-6, effect of SB431542 (RAW264.7 cells [1]; [9]): constantly increased depending on the additive concentration | expression level of arginase-1, effect of SB431542 (RAW264.7 cells [1]; [9]): reduced depending on the additive concentration | palmitic acid-induced increase of MCP-1 expression, effect of SB431542 (RAW264.7 cells [1]; [9]): not changed | expression level of IL-6, effect of SB431542 (RAW264.7 cells [1]; [10]): constantly increased depending on the additive concentration | expression level of arginase-1, effect of SB431542 (RAW264.7 cells [1]; [10]): reduced depending on the additive concentration | palmitic acid-induced increase of MCP-1 expression, effect of SB431542 (RAW264.7 cells [1]; [10]): not changed | expression level of IL-6 (RAW264.7 cells [1]; [11]): not changed or were slightly changed | expression level of MCP-1 (RAW264.7 cells [1]; [11]): not changed or were slightly changed | expression level of arginase-1 (RAW264.7 cells [1]; [11]): not changed or were slightly changed | activin A-induced increase in expression of arginase-1, Mrc2 and IL-10 (RAW264.7 cells [2]): reduced to the same level as control

CCCCCCCCCCCCCCCC(=O)O [palmitic acid]
expression level of IL-6 (RAW264.7 cells [1]; [12]): remarkably increased | expression level of MCP-1 (RAW264.7 cells [1]; [12]): remarkably increased | expression level of arginase-1 (RAW264.7 cells [1]; [12]): not changed or was slightly changed | expression of IL-6, effect of palmitic acid (RAW264.7 cells [3]; 8 hours): increased | expression of MCP1, effect of palmitic acid (RAW264.7 cells [3]; regardless of the presence of activin species, change negligible): increased

B1: activin B: Recombinant (R&D Systems, 659AB005); in Examples 3 and 7 expressed by inhibin βB recombinant adenovirus (protein, UniProt P09529 293-407, looked up)
Inhibin beta B chain: GLECDGRTNLCCRQQFFIDFRLIGWNDWIIAPTGYYGNYCEGSCPAYLAGVPGSASSFHTAVVNQYRMRGLNPGTVNSCCIPTKLSTMSMLYFDDEYNIVKRDVPNMIVEECGCA
modifications: Inhibin beta B chain homodimer
expression level of arginase-1 (RAW264.7 cells [1]; activin 10 ng/mL present, palmitic acid 200 μM added, 8 hours): remarkably increased | expression level of MCP-1, effect of activin addition (RAW264.7 cells [1]; [13]): not changed | expression of IL-6, effect of activin addition (RAW264.7 cells [1]; [13]): slightly reduced | expression level of IL-6 (M1 macrophage marker) (RAW264.7 cells [4]): not changed | expression level of MCP-1 (M1 macrophage marker) (RAW264.7 cells [4]): not changed | expression of arginase-1 (M2 macrophage marker) (RAW264.7 cells [4]; mRNA relative to cyclophilin A): remarkably increased | expression level of arginase-1 in visceral fat [5]: similarly increased | expression of arginase-1 in visceral fat (db/db mice): remarkably increased | glucose metabolism in glucose tolerance test (GTT) [6]: improved glucose metabolism

B2: Fstl3: Follistatin-like 3 Recombinant (R&D Systems, 1255F3025); binds to activins and inhibits binding to their receptor (protein, UniProt O95633 27-263, looked up)
Follistatin-related protein 3: MGSGNPAPGGVCWLQQGQEATCSLVLQTDVTRAECCASGNIDTAWSNLTHPGNKINLLGFLGLVHCLPCKDSCDGVECGPGKACRMLGGRPRCECAPDCSGLPARLQVCGSDGATYRDECELRAARCRGHPDLSVMYRGRCRKSCEHVVCPRPQSCVVDQTGSAHCVVCRAAPCPVPSSPGQELCGNNNVTYISSCHMRQATCFLGRSIGVRHAGSCAGTPEEPPGGESAEEEENFV
expression of arginase-1, effect of Fstl3 (RAW264.7 cells [3]; Fstl3 30 ng/mL added concurrently with activin A 10 ng/mL): reduced | expression level of MCP1, effect of FSTL3 (RAW264.7 cells [3]; Fstl3 3 to 30 ng/mL): not changed | expression level of arginase-1, effect of FSTL3 (RAW264.7 cells [7]): reduced to the same level as the control
